Drawing on the supplement of paper PMC10307832, this text covers relative viability for 1 cell line.

Holding throughout (assay): relative viability (nuclei count vs DMSO), 5 days (fraction); higher = more cells survive
Compound in test [1]: CC(C)CCN1c2nc(Nc3cc(F)c(O)c(F)c3)ncc2N(C)C(=O)C1C [BI-D1870] + CS(=O)(=O)CCNCc1ccc(-c2ccc3ncnc(Nc4ccc(OCc5cccc(F)c5)c(Cl)c4)c3c2)o1 [Lapatinib] (partner 2 µM)
A digest of the protocol:
(§1)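 Five library-drug doses in √10 steps were combined with a fixed anchor-drug dose, or a single drug was given alone, by pin tool to lung cancer cell lines in 1536-well plates the day after seeding. Nuclei were stained and counted after 5 days. Relative viability is the nuclei count in treated wells over that in vehicle wells, taken as the median of duplicate plates.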

Compound in test [2]: CC(C)CCN1c2nc(Nc3cc(F)c(O)c(F)c3)ncc2N(C)C(=O)C1C [BI-D1870] + C[C@]1(O)C[C@@H](c2nc(-c3ccc4ccc(-c5ccccc5)nc4c3)c3c(N)nccn32)C1 [Linsitinib] (partner 1 µM)
A digest of the protocol:
as §1

Compound in test [3]: O=c1ncccn1[C@@H]1O[C@H](CO)[C@@H](O)[C@H]1O [Zebularine] + Cc1cc(Nc2cc(N3CCN(C)CC3)nc(Sc3ccc(NC(=O)C4CC4)cc3)n2)n[nH]1 [Tozasertib] (partner 0.1 µM)
The procedure, abridged:
as §1

Compound in test [4]: O=c1ncccn1[C@@H]1O[C@H](CO)[C@@H](O)[C@H]1O [Zebularine] + Nc1ncn([C@H]2C[C@H](O)[C@@H](CO)O2)c(=O)n1 [Decitabine] (partner 2 µM)
A digest of the protocol: as §1

UMC-11: the relative viability was 1.12 in test [1] (first compound 0.04 µM); 0.858 in test [1] (first compound 0.1265 µM); 0.97 in test [1] (first compound 0.4 µM); 1.08 in test [1] (first compound 1.265 µM); 0.637 in test [1] (first compound 4 µM); 1.06 in test [2] (first compound 0.04 µM). Besides, the relative viability amounted to 0.924 in test [2] (first compound 0.1265 µM); 0.972 in test [2] (first compound 0.4 µM); 1.06 in test [2] (first compound 1.265 µM); 0.693 in test [2] (first compound 4 µM); 0.191 in test [3] (first compound 1 µM); 0.192 in test [3] (first compound 3.162 µM). Moreover, the relative viability in test [3] (first compound 10 µM) turned out to be 0.219; in test [3] (first compound 31.62 µM), 0.213; in test [3] (first compound 100 µM) it was 0.207; in test [4] (first compound 1 µM), 0.557; in test [4] (first compound 3.162 µM) it was 0.604; in test [4] (first compound 10 µM) it was 0.589. The relative viability in test [4] (first compound 31.62 µM) came to 0.586; in test [4] (first compound 100 µM) it was 0.527.
